According to article PMC3296825 (Nature medicine, 2012):

Legend:
[1] = target: fast skeletal troponin complex (Oryctolagus cuniculus, UniProt P02586+P02643); assay: isothermal titration calorimetry; assay type: binding
slow skeletal troponin = slow skeletal troponin (Bos taurus, UniProt G3MYN5+P63315); assay: isothermal titration calorimetry; assay type: binding

fast skeletal troponin complex, sequence (P02586 2-160): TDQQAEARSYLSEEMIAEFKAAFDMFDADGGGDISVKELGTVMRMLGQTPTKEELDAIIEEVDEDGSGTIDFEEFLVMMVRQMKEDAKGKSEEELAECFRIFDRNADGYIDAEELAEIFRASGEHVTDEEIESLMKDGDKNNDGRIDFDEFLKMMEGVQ
fast skeletal troponin complex, sequence (P02643 2-182): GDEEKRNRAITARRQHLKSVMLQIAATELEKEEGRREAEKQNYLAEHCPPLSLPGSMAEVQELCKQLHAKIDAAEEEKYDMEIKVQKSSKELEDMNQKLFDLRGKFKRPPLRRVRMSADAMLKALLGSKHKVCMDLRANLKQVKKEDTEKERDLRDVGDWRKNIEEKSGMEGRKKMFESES
fast skeletal troponin complex, sequence (P02641 2-279 partner): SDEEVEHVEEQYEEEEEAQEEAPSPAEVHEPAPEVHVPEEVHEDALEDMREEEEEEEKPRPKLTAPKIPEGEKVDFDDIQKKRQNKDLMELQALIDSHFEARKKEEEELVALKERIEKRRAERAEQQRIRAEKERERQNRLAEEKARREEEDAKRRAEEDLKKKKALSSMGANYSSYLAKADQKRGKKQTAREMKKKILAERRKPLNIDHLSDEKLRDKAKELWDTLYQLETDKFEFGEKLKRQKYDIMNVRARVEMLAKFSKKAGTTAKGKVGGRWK

- Kd [1]: 40 ± 6 nM
- Kd (slow skeletal troponin): 3800 ± 700 nM
Compound: C#Cc1cnc2nc(O)n(C(CC)CC)c2n1 [CK-2017357]
